Test results taken from patent US6486199B1, “Spiro and dispiro 1,2,4-trioxolane antimalarials” (Medicines for Malaria Venture MMV International Centre …, priority 2001, dated 2002).
Values after ≈ are worked out from the molar mass of the structure shown. Marks after values point to notes of the source that are not given here.

Key:
[1] = tested on: chloroquine-sensitive NF54 strain of P. falciparum; assay: in vitro screen against chloroquine-sensitive NF54 strain of P. falciparum; format: cell-based; settings: in vitro, NF54 strain
[2] = tested on: ANKA strain of P. Berghei; assay: single dose STI in vivo screen in infected Moro SPF mice; settings: for Activity (%) po / Activity (%) sc: percent reduction in parasitemia day 3 post-infection; for antimalarial activity, overall assessment: overall judgement of in vitro and in vivo data of Table 2; for in vivo activity: 10 mg/kg po/sc data of Table 2
Method: In the single dose STI in vivo screen, Moro SPF mice infected with the ANKA strain of P. Berghei (groups of three mice) were treated on day one post-infection with trioxolanes dissolved or suspended in 3% ethanol and 7% Tween 80. […] Antimalarial activity was measured by percent redution in parasitemia on day three post-infection and survival times compared to an untreated control group. Survival to day 30 post-infection is considered to be a cure.

P. berghei [3] = assay: 1-day Peters test against P. berghei in vivo; settings: for oral activity based on po ED50/ED90 values: ranking among trioxolanes and controls
P. berghei [4] = assay: 4-day Peters test against P. berghei in vivo; settings: 4 day
[5] = differential scanning calorimetry (DSC), thermal stability; format: physicochemical; settings: thermal decomposition
[6] = tested on: 21-day-old schistosomules of Schistosoma mansoni; assay: effect on 21-day-old schistosomules in mice; format: in vivo; settings: single 200 mg/kg per os; for FWR (%): female worm reduction rate; for Mean female worm burden: mean ± standard deviation; for TWR (%): total worm reduction rate
Method: […] Each group was treated per os with OZ compounds at a single dose of 200 mg/kg. Untreated mice served as the control. All groups were killed 4 weeks after treatment and the liver and intestine were removed and separated. The liver and intestine were compressed and alive male and female worms could be seen and counted. The effect of the compounds was evaluated by mean total and female worm burden.

[7] = tested on: adult schistosomes (49-day-old) of Schistosoma mansoni; assay: effect on adult schistosomes (49-day-old) in mice; format: in vivo; settings: single 400 mg/kg per os; for TWR (%): total worm reduction rate; for Mean total worm burden: x ± SD
Method: Mice were infected with 100 Schistosoma mansoni cercariae […]. Each group was treated per os with OZ compounds at a single dose of 400 mg/kg. Untreated mice served as the control. All groups were killed 4 weeks after treatment and the liver and intestine were removed and separated. The liver and intestine were compressed and alive male and female worms could be seen and counted.

[8] = tested on: chloroquine-resistant K1 strain of P. falciparum; assay: in vitro screen against chloroquine-resistant K1 strain of P. falciparum; format: cell-based; settings: in vitro; for in vitro potency: strains not distinguished

CCO[C@H]1O[C@@H]2O[C@@]3(C)CC[C@H]4[C@H](C)CC[C@@H]([C@H]1C)[C@@]24OO3 [Arteether, arteether, reference compound]
IC50 (ng/ml) NF54 [1]: 0.54 ng/mL (≈ 1.73 nM) | Activity (%) po ([2]; single 10 mg/kg po): 98% | Activity (%) sc ([2]; single 10 mg/kg sc): 100% | Activity (%) po ([2]; single 100 mg/kg po): 99.98% | Activity (%) sc ([2]; single 100 mg/kg sc): 100% | Survival (days) po ([2]; single 10 mg/kg po): 8 days | Survival (days) sc ([2]; single 10 mg/kg sc): 9.7 days | Survival (days) po ([2]; single 100 mg/kg po, survival to day 30 = cure): 12 days | Survival (days) sc ([2]; single 100 mg/kg sc, survival to day 30 = cure): 26.3 days | P. berghei (1 day) ED50 po (P. berghei [3]): 2.4 mg/kg | P. berghei (1 day) ED90 po (P. berghei [3]): 6.8 mg/kg

O=C1CC2CC3(CC2C1)OOC1(O3)C2CC3CC(C2)CC1C3 (stereo not drawn) [OZ12, Adamantane-2-spiro-3′-1′,2′,4′-trioxolane-5′-spiro-3″-7″-oxo-cis-bicyclo[3.3.0]octane]
P. berghei (4 day) ED50 po (P. berghei [4]): 6.8 mg/kg | P. berghei (4 day) ED90 po (P. berghei [4]): 10.5 mg/kg | P. berghei (4 day) ED50 sc (P. berghei [4]): 0.8 mg/kg | P. berghei (4 day) ED90 sc (P. berghei [4]): 1.4 mg/kg | Tm dec. (° C.) [5]: 149.8 °C

CON=C1CCC2(CC1)OOC1(O2)C2CC3CC(C2)CC1C3 (centres unmarked) [OZ15, Adamantane-2-spiro-3′-8′-methoxyimino-1′,2′,4′-trioxaspiro[4.5]decane]
P. berghei (1 day) ED50 po (P. berghei [3]): 3.1 mg/kg | P. berghei (1 day) ED90 po (P. berghei [3]): 5.9 mg/kg | P. berghei (1 day) ED50 sc (P. berghei [3]): 0.7 mg/kg | P. berghei (1 day) ED90 sc (P. berghei [3]): 2.6 mg/kg | P. berghei (4 day) ED50 po (P. berghei [4]): 2.9 mg/kg | P. berghei (4 day) ED90 po (P. berghei [4]): 6.3 mg/kg | P. berghei (4 day) ED50 sc (P. berghei [4]): 0.7 mg/kg | P. berghei (4 day) ED90 sc (P. berghei [4]): 1.1 mg/kg | FWR (%) [6]: 70% | Mean female worm burden [6]: 3.8 ± 2.4^b | TWR (%) [6]: 63% | Percentage of dead worm [7]: 10 (21/210) | Total dead worm [7]: 21 | TWR (%) [7]: 0% | Mean total worm burden [7]: 37.8 ± 20.6 | Tm dec. (° C.) [5]: 157.8 °C

CC(C)(C)C1CCC2(CC1)OOC1(O2)C2CC3CC(C2)CC1C3 (centres unmarked) [OZ18, Adamantane-2-spiro-3′-8′-t-butyl-1′,2′,4′-trioxaspiro[4.5]decane]
antimalarial activity, overall assessment [2]: completely inactive | Activity (%) po ([2]; single 10 mg/kg po): 0/0% | Activity (%) sc ([2]; single 10 mg/kg sc): 0/0% | FWR (%) [6]: 9% | Mean female worm burden [6]: 11.4 ± 2.7^a | TWR (%) [6]: 12% | Percentage of dead worm [7]: 0 | Total dead worm [7]: 0 | TWR (%) [7]: 0.6% | Mean total worm burden [7]: 35.6 ± 7.2^a | Tm dec. (° C.) [5]: 166.5 °C

c1ccc(CON=C2CCC3(CC2)OOC2(O3)C3CC4CC(C3)CC2C4)cc1 (centres unmarked) [OZ19, Adamantane-2-spiro-3′-8′-benzyloxyimino-1′,2′,4′-trioxaspiro[4.5]decane]
in vitro potency, fold less potent than the analog [8]: ~2 fold | P. berghei (1 day) ED50 po (P. berghei [3]): 3.4 mg/kg | P. berghei (1 day) ED90 po (P. berghei [3]): 9.4 mg/kg | P. berghei (1 day) ED50 sc (P. berghei [3]): 1.8 mg/kg | P. berghei (1 day) ED90 sc (P. berghei [3]): 3.6 mg/kg | P. berghei (4 day) ED50 po (P. berghei [4]): <10/>10 mg/kg | P. berghei (4 day) ED90 po (P. berghei [4]): <10/>10 mg/kg | Tm dec. (° C.) [5]: 157.8 °C

O=C(c1ccccc1)N1CCC2(CC1)OOC1(O2)C2CC3CC(C2)CC1C3 (centres unmarked) [OZ24, Adamantane-2-spiro-3′-8′-benzoyl-1′,2′,4′-trioxa-8′-azaspiro[4.5]decane]
P. berghei (1 day) ED50 po (P. berghei [3]): 3.9 mg/kg | P. berghei (1 day) ED90 po (P. berghei [3]): 9.0 mg/kg | P. berghei (1 day) ED90 sc (P. berghei [3]): NA/2.1 mg/kg | P. berghei (4 day) ED50 po (P. berghei [4]): <10/>10 mg/kg | P. berghei (4 day) ED90 po (P. berghei [4]): <10/>10 mg/kg | Tm dec. (° C.) [5]: 154.9 °C

CCCC1CCC2(CC1)OOC1(O2)C2CC3CC(C2)CC1C3 (centres unmarked) [OZ25, Adamantane-2-spiro-3′-8′-propyl-1′,2′,4′-trioxaspiro[4.5]decane]
antimalarial activity, overall assessment [2]: excellent activity | P. berghei (1 day) ED50 po (P. berghei [3]): 1.9 mg/kg | P. berghei (1 day) ED90 po (P. berghei [3]): 3.1 mg/kg | P. berghei (1 day) ED50 sc (P. berghei [3]): 1.7 mg/kg | P. berghei (1 day) ED90 sc (P. berghei [3]): 3.0 mg/kg | oral activity based on po ED50/ED90 values (P. berghei [3]): only slightly less orally active than OZ11 | P. berghei (4 day) ED50 po (P. berghei [4]): 1.2 mg/kg | P. berghei (4 day) ED90 po (P. berghei [4]): 3.7 mg/kg | P. berghei (4 day) ED50 sc (P. berghei [4]): 2.2 mg/kg | P. berghei (4 day) ED90 sc (P. berghei [4]): 3.7 mg/kg | Tm dec. (° C.) [5]: 167.7 °C

c1ccc2c(c1)COC1(CCC3(CC1)OOC1(O3)C3CC4CC(C3)CC1C4)OC2 (centres unmarked) [OZ31, Adamantane-2-spiro-3′-11′,12′-benzo-1′,2′,4′, 9′,14′-pentaoxadispiro[4.2.6.2]hexadecane]
Activity (%) po ([2]; single 10 mg/kg po): 99.95/99.95% | Activity (%) sc ([2]; single 10 mg/kg sc): 99.95/99.95% | P. berghei (1 day) ED50 po (P. berghei [3]): 1.6 mg/kg | P. berghei (1 day) ED90 po (P. berghei [3]): 3.9 mg/kg | P. berghei (1 day) ED50 sc (P. berghei [3]): 1.1 mg/kg | P. berghei (1 day) ED90 sc (P. berghei [3]): 2.4 mg/kg | Tm dec. (° C.) [5]: 161.1 °C

Clc1ccc(C2(c3ccc(Cl)cc3)OOC3(O2)C2CC4CC(C2)CC3C4)cc1 (centres unmarked) [OZ43, Adamantane-2-spiro-3′-5′, 5′-bis(4′-chlorophenyl)-1′,2′,4′-trioxolane]
P. berghei (1 day) ED50 po (P. berghei [3]): 2.1 mg/kg | P. berghei (1 day) ED90 po (P. berghei [3]): 4.0 mg/kg | oral activity based on po ED50/ED90 values (P. berghei [3]): only slightly less orally active than OZ11 | Percentage of dead worm [7]: 0 | Total dead worm [7]: 0 | TWR (%) [7]: 1.1% | Mean total worm burden [7]: 35.4 ± 15.8^a | Tm dec. (° C.) [5]: 155.8 °C

CC(=O)N1CCC2(CC1)OOC1(O2)C2CC3CC(C2)CC1C3 (centres unmarked) [OZ49, Adamantane-2-spiro-3′-8′-acetyl-1′,2′,4′-trioxa-8′-azaspiro[4.5]decane]
in vitro potency, fold less potent than the analog [8]: 2 fold | Tm dec. (° C.) [5]: 155.7 °C

CCS(=O)(=O)N1CCC2(CC1)OOC1(O2)C2CC3CC(C2)CC1C3 (centres unmarked) [OZ79, Adamantane-2-spiro-3′-8′-ethanesulfonyl-1′,2′,4′-trioxa-8′-azaspiro[4.5]decane]
in vitro potency [8]: very potent | in vivo activity [2]: good | Tm dec. (° C.) [5]: 153.6 °C

CC(=O)OCC(=O)N1CCC2(CC1)OOC1(O2)C2CC3CC(C2)CC1C3 (centres unmarked) [OZ82, Adamantane-2-spiro-3′-8′-acetoxyacetyl-1′,2′,4′-trioxa-8′-azaspiro[4.5]decane]
IC50 (ng/ml) NF54 [1]: /1.3 ng/ml | antimalarial activity, overall assessment [2]: very active | Tm dec. (° C.) [5]: 153.7 °C

O=C(CO)N1CCC2(CC1)OOC1(O2)C2CC3CC(C2)CC1C3 (centres unmarked) [OZ83, Adamantane-2-spiro-3′-8′-hydroxyacetyl-1′,2′,4′-trioxa-8′-azaspiro[4.5]decane]
IC50 (ng/ml) NF54 [1]: /1.0 ng/ml | antimalarial activity, overall assessment [2]: very active | Tm dec. (° C.) [5]: 163.6 °C

O=S(=O)(c1ccc(F)cc1)N1CCC2(CC1)OOC1(O2)C2CC3CC(C2)CC1C3 (centres unmarked) [OZ86, Adamantane-2-spiro-3′-8′-(4′-fluorobenzenesulfonyl)-1′,2′,4′-trioxa-8′-azaspiro[4.5]decane]
IC50 (ng/ml) NF54 [1]: /2.3 ng/ml | Tm dec. (° C.) [5]: 153.0 °C

O=C(CCl)N1CCC2(CC1)OOC1(O2)C2CC3CC(C2)CC1C3 (centres unmarked) [OZ87, Adamantane-2-spiro-3′-8′-chloroacetyl-1′,2′,4′-trioxa-8′-azaspiro[4.5]decane]
IC50 (ng/ml) NF54 [1]: /4.5 ng/ml | antimalarial activity, overall assessment [2]: much less active | Tm dec. (° C.) [5]: 149.7 °C

O=C(OCCC1CCC2(CC1)OOC1(O2)C2CC3CC(C2)CC1C3)c1ccc([N+](=O)[O-])cc1 (centres unmarked) [OZ88, Adamantane-2-spiro-3′-8′-[2′-(4′-nitrobenzoyloxy)ethyl]-1′,2′,4′-trioxaspiro[4.5]decane]
IC50 (ng/ml) NF54 [1]: /4.2 ng/ml | Tm dec. (° C.) [5]: 158.9 °C

OCCC1CCC2(CC1)OOC1(O2)C2CC3CC(C2)CC1C3 (centres unmarked) [OZ89, Adamantane-2-spiro-3′-8′-(2′-hydroxyethyl)-1′,2′,4′-trioxaspiro[4.5]decane]
IC50 (ng/ml) NF54 [1]: /1.0 ng/ml | antimalarial activity, overall assessment [2]: quite active | Tm dec. (° C.) [5]: 154.7 °C

CC1(O)CCC2(CC1)OOC1(O2)C2CC3CC(C2)CC1C3 (centres unmarked) [OZ90, Adamantane-2-spiro-3′-8′-hydroxy-8′-methyl-1′,2′,4′-trioxaspiro[4.5]decane]
IC50 (ng/ml) NF54 [1]: /1.1 ng/ml | antimalarial activity, overall assessment [2]: quite active | Tm dec. (° C.) [5]: 153.2 °C

Adamantane-2-spiro-3′-1′,2′,4′-trioxaspiro[4.5]decan-8′-one pyridinioacetylhydrazone chloride [OZ55]
in vitro potency [8]: quite potent | in vivo activity [2]: minimal | Activity (%) po ([2]; single 10 mg/kg po): 45% | Activity (%) sc ([2]; single 10 mg/kg sc): 97% | Survival (days) po ([2]; single 10 mg/kg po): 6.0 days | Survival (days) sc ([2]; single 10 mg/kg sc): 7.3 days
